Literature values as cited in US11123300B2, “Immediate release tablet of a benzothiophene compound” (Hexal AG, priority 2016, dated 2021).

SMILES: O=c1ccc2ccc(OCCCCN3CCN(c4cccc5sccc45)CC3)cc2[nH]1 [brexpiprazole, 7-[4-[4-(1-Benzothiophen-4-yl)piperazin-1-yl]butoxy]quinolin-2(1H)-one]
- solubility of brexpiprazole in water: 2.27 µg/mL
